In publication PMC7312435, “Direct inhibition of the TLR4/MyD88 pathway by geniposide suppresses HIF‐1α‐independent VEGF expression and angiogenesis in hepatocellular carcinoma” (British Journal of Pharmacology, 2020):

Molecular target: T1, recombinant human TLR4 (Homo sapiens, UniProt O00206)
T1 construct: amine-coupled to CM5 chip
Assay: surface plasmon resonance (Biacore X100), steady-state fit
Assay type: binding
Settings: PBS with 0.05% Triton X-100, pH 7.4; geniposide 0-12.8 uM; TLR4 immobilised on CM5 chip (1,300 RU)

T1 sequence (O00206 24-839): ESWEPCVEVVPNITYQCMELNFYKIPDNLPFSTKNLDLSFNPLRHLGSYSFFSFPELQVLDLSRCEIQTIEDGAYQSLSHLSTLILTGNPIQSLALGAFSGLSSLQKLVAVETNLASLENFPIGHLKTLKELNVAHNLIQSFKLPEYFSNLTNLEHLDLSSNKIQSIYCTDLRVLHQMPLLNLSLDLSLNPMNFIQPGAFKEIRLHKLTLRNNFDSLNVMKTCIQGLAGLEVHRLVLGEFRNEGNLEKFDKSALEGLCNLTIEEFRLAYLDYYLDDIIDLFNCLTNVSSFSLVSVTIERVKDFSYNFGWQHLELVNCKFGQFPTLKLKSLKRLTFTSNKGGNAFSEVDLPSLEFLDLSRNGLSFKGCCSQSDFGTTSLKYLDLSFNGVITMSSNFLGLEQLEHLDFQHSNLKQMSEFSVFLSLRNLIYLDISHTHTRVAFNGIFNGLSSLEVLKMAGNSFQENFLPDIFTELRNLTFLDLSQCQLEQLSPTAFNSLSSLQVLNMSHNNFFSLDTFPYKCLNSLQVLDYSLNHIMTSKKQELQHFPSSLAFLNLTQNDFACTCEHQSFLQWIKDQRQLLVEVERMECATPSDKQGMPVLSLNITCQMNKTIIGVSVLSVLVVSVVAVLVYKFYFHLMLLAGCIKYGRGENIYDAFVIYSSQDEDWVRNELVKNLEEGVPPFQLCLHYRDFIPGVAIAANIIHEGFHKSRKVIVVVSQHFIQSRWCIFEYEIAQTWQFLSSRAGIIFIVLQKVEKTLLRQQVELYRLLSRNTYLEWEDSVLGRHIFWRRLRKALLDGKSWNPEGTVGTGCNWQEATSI

## COC(=O)C1=CO[C@@H](O[C@@H]2O[C@H](CO)[C@@H](O)[C@H](O)[C@H]2O)[C@@H]2C(CO)=CC[C@H]12 [geniposide]
  K D: 6.716e^−6 M
